According to PMC10381309 (Journal of Fungi, 2023):
In brackets after ≈: the same amount, converted by molar mass.

Columns and labels:
Type in all cases: cell-based
[1] = tested on: Fonsecaea pedrosoi (CFP 00791); assay: NIH Clinical Collection screening for antifungal activity (growth inhibition, OD 530 nm); conditions: Fonsecaea pedrosoi, read-out: % Growth Inhibition
Procedure: These substances are part of the NIH Roadmap Molecular Libraries Screening Centers Network screening library, a collection of chemically diverse substances in Phase I-III clinical trials. Each substance was initially diluted to 1 mM in DMSO and stored at −20 °C until use. […] The final DMSO concentration corresponded to 0.5% v/v. The inoculum was prepared according to the protocol for filamentous fungi proposed by the European Committee on Antimicrobial Susceptibility Testing—EUCAST, with minor modifications. […] After growth, conidia were suspended in 3 mL of sterile distilled water with 0.1% Tween 20, vortexed, and the concentration adjusted to the 0.5 McFarland scale. The suspension was then diluted 1:10 in order to obtain a final working inoculum at 2–5 × 10^5 CFU/mL. Next, 100 µL of the inoculum was added to each well and the plates incubated at 35 °C for 72–96 h. Negative and positive controls consisted of culture medium alone and drug-free culture medium with the fungal inoculum previously described, respectively. Plates were read using a microplate reader (Epoch, Biotek, Wenusky, VT, USA) with a 530 nm filter to obtain the optical density. All plates were also visually read to confirm the equipment data. A calculation was performed to obtain the percentage of inhibition of fungal growth, according to the formula: (1 − (OD1/OD2)) × 100, where OD1 = optical density of the fungus in the presence of the drug; and OD2 = optical density of the growth control drug-free well.

[2] = tested on: Rhinocladiela similis (CFP 00790); assay: MIC determination (EUCAST, minor modifications); conditions: for Selectivity Index (SI): R. similis
Procedure: (§1) Minimum inhibitory concentrations (MICs) were determined using the method proposed by the European Committee on Antimicrobial Susceptibility Testing (EUCAST), with minor modifications. Hit drugs were serially diluted (80 μM to 0.15625 μM) in RPMI 1640 (twice concentrated, pH 7; supplemented with 2% glucose) buffered with MOPS in 96-well plates. The inoculums of all strains were prepared following the EUCAST protocol. Plates were incubated at 35 °C for 72–96 h. The MIC of the NCC substances was determined as the lowest concentration capable of inhibiting 100% of fungal growth when compared to the growth control well. MIC values were determined in duplicate.

[3] = tested on: Fonsecaea monophora (CFP 00911); assay: MIC determination (EUCAST, minor modifications); conditions: for Selectivity Index (SI): F. monophora
Procedure: as §1

[4] = tested on: Cladophialophora carrionii (CFP 00910); assay: MIC determination (EUCAST, minor modifications); conditions: for Selectivity Index (SI): C. carrionii
Procedure: as §1

[5] = tested on: Fonsecaea nubica (CFP 00912); assay: MIC determination (EUCAST, minor modifications); conditions: for Selectivity Index (SI): F. nubica
Procedure: as §1

[6] = tested on: Phialophora verrucosa (CFP 00937); assay: MIC determination (EUCAST, minor modifications); conditions: for Selectivity Index (SI): P. verrucosa
Procedure: as §1

[7] = tested on: Exophiala dermatitidis (ATCC 28869); assay: MIC determination (EUCAST, minor modifications); conditions: for Selectivity Index (SI): E. dermatitidis
Procedure: as §1

[8] = tested on: Fonsecaea pedrosoi (CFP 00791); assay: MIC determination (EUCAST, minor modifications); conditions: for Selectivity Index (SI): F. pedrosoi
Procedure: as §1

[9] = tested on: Exophiala heteromorpha (ATCC 28180); assay: MIC determination (EUCAST, minor modifications); conditions: for Selectivity Index (SI): E. heteromorpha
Procedure: as §1

[10] = tested on: Cladophialophora carrionii (CFP 00910); assay: Minimum fungicidal concentration determination
Procedure: The MFC was determined as the lowest drug concentration without fungal growth on Sabouraud agar after five days of incubation at 35 °C.

[11] = tested on: Cladophialophora carrionii (CFP 00910); assay: Urease production in Christensen urea broth (OD 559 nm); conditions: C. carrionii; ½ MIC albendazole; 7 and 12 days, 37 °C
Procedure: (§2) To verify urease production, three strains: Fonsecaea pedrosoi (CFP 00791) Cladophialophora carrionii (CFP 00910), and Exophiala heteromorpha (ATCC® 28180), corresponding to the three major chromoblastomycosis agents worldwide, were cultured on PDA for seven days and further cultured in Christensen urea broth in the presence and absence of albendazole at a ½ MIC concentration. Candida albicans and Cryptococcus neoformans were used as negative and positive controls of the culture medium, respectively. In brief, fungal suspensions were adjusted to a concentration of 10^6 cells/mL and used for inoculation. A volume of 500 μL of these suspensions were inoculated into 4.5 mL of Christensen urea broth and the tubes were then incubated under agitation (150 rpm) at 37 °C. At the end of seven and 12 days of incubation, the tubes were centrifuged, and a volume of 100 μL of the supernatant was transferred to a 96-well plate; this procedure was performed in triplicate. The absorbances of the samples were read on a SpectraMax plus 384 spectrophotometer (Molecular Devices, San José, CA, USA) at 559 nm, as previously described by Almeida-Paes et al.. Results were analyzed statistically using the two-way ANOVA test with multiple comparisons. p values lower than 0.05 were considered significant.

[12] = tested on: Fonsecaea pedrosoi (CFP 00791); assay: as above; conditions: F. pedrosoi; ½ MIC albendazole; 7 and 12 days, 37 °C
Procedure: as §2

[13] = tested on: Exophiala heteromorpha (ATCC 28180); assay: as above; conditions: E. heteromorpha; ½ MIC albendazole; 7 and 12 days, 37 °C
Procedure: as §2

CCCSc1ccc2nc(NC(=O)OC)[nH]c2c1 [Albendazole]
inhibition at 10 µM [1]: 98%
MIC [2]: 1.25 µM (≈ 0.332 µg/mL)
Selectivity Index (SI) ([2]; CC50 HaCat 96 h / MIC): 68.08
Selectivity Index (SI) ([2]; CC50 Vero 24 h / MIC): 301.88
Selectivity Index (SI) ([2]; CC50 Vero 96 h / MIC): 209.24
Selectivity Index (SI) ([3]; CC50 HaCat 96 h / MIC): 136.16
Selectivity Index (SI) ([3]; CC50 Vero 24 h / MIC): 603.76
Selectivity Index (SI) ([3]; CC50 Vero 96 h / MIC): 418.49
MIC ([3]; Fonsecaea monophora): 0.625 µM (≈ 0.166 µg/mL)
Selectivity Index (SI) ([4]; CC50 HaCat 96 h / MIC): 34.04
Selectivity Index (SI) ([4]; CC50 Vero 24 h / MIC): 150.94
Selectivity Index (SI) ([4]; CC50 Vero 96 h / MIC): 104.62
MIC ([4]; Cladophialophora carrionii): 2.5 µM (≈ 0.663 µg/mL)
Selectivity Index (SI) ([5]; CC50 HaCat 96 h / MIC): 136.16
Selectivity Index (SI) ([5]; CC50 Vero 24 h / MIC): 603.76
Selectivity Index (SI) ([5]; CC50 Vero 96 h / MIC): 418.49
MIC ([5]; Fonsecaea nubica): 0.625 µM (≈ 0.166 µg/mL)
Selectivity Index (SI) ([6]; CC50 HaCat 96 h / MIC): 136.16
Selectivity Index (SI) ([6]; CC50 Vero 24 h / MIC): 603.76
Selectivity Index (SI) ([6]; CC50 Vero 96 h / MIC): 418.49
MIC ([6]; Phialophora verrucosa): 0.625 µM (≈ 0.166 µg/mL)
Selectivity Index (SI) ([7]; CC50 HaCat 96 h / MIC): 34.04
Selectivity Index (SI) ([7]; CC50 Vero 24 h / MIC): 150.94
Selectivity Index (SI) ([7]; CC50 Vero 96 h / MIC): 104.62
MIC ([7]; Exophiala dermatitidis, ATCC28869): 2.5 µM (≈ 0.663 µg/mL)
Selectivity Index (SI) ([8]; CC50 HaCat 96 h / MIC): 68.08
Selectivity Index (SI) ([8]; CC50 Vero 24 h / MIC): 301.88
Selectivity Index (SI) ([8]; CC50 Vero 96 h / MIC): 209.24
MIC ([8]; Fonsecaea pedrosoi): 1.25 µM (≈ 0.332 µg/mL)
Selectivity Index (SI) ([9]; CC50 HaCat 96 h / MIC): 34.04
Selectivity Index (SI) ([9]; CC50 Vero 24 h / MIC): 150.94
Selectivity Index (SI) ([9]; CC50 Vero 96 h / MIC): 104.62
MIC ([9]; Exophiala heteromorpha, ATCC28180): 2.5 µM (≈ 0.663 µg/mL)
MFC:MIC Ratio ([10]; C. carrionii): 8
MFC ([10]; Cladophialophora carrionii): 20 µM (≈ 5.31 µg/mL)
urease secretion [11]: decrease in urease secretion
urease secretion [12]: increased secretion of urease
urease secretion [13]: decrease in urease secretion
